Experimental data reported in patent US20250197831A1, “LACTASE SOLUTION” (GODO SHUSEI CO., LTD., priority 2021, published 2025).
Counter-ions that a name gives are not always drawn.

Assays:
[1] = molecular target: T1, lactase (Kluyveromyces lactis, UniProt P00723); assay: Residual activity of lactase activity after storage; type: physicochemical; details: for Residual Activity: storage at 50° C. for 3 days; for residual activity of lactase activity after storage (storage stability test): 0.005% and 0.01% in 60,000 U/g lactase solution, stored at 12° C. for 30 days
T1 construct: purchased GODO SHUSEI CO., LTD; GODO-YNL2LS
Protocol: In the following examples and the like, commercially available GODO-YNL2LS (manufactured by GODO SHUSEI CO., LTD.) was used as the lactase solution. […]
A diluted enzyme solution (0.5 mL) and 0.5 mL of a basic buffer (100 mM phosphate buffer (pH 6.5) containing 0.1 mM manganese chloride) are mixed, and the mixture is preheated at 37° C. for 3 minutes, and then, 1.0 mL of a 1.65 mM O-nitrophenyl-β-D-galactopyranoside (ONPG) aqueous solution is added thereto to cause a reaction at 37° C. for 1 minute. After 2.0 mL of a reaction stop solution (200 mM sodium carbonate) was added thereto, the absorbance at OD 420 nm was measured. One unit (U) is the enzyme activity that increases the OD […] by 1 from the substrate in 10 minutes.
(§1) A predetermined amount of a given additive was added to GODO-YNL2LS, and the slope (−a) showing filter permeability and the residual activity of lactase activity were measured.
Each lactase solution was obtained by adding the additive shown in the table in a predetermined amount to 60,000 U/g GODO-YNL2LS. Each lactase solution immediately after preparation was subjected to a filter permeability test and a lactase activity measurement by the above-mentioned methods. […]
In a container, 0.03 g of a saturated fatty acid and 1 mL of a 1 M aqueous sodium hydroxide solution were mixed, and 4 mL of distilled water was added thereto. The mixture was subjected to a saponification treatment in boiling water at 100° C. for 5 minutes, then left to cool to room temperature, and the reaction product was added to 294 g of a total amount of the lactase solution (GODO-YNL2LS) (addition amount: 0.01%). The filtrate obtained by filtering this was subjected to a filter permeability test and a residual activity of lactase activity.
In this example, 108 g of 99% glycerin was mixed with 0.03 g of the unsaturated fatty acid in a container. The mixture was added to 192 g of a total amount of the lactase solution (GODO-YNL2LS) (addition amount: 0.01%). The filtrate obtained by filtering this was subjected to a filter permeability test and a residual activity of lactase activity.

[2] = Filter permeability test of the lactase solution (slope −a of flux vs permeate); type: physicochemical; details: for Slope (−a) Before Shaking: immediately after preparation; for Slope (−a) After Shaking: shaken at 20° C., 30 mm, 100 spm, 1 hour
Protocol: The detailed conditions in this example of the filter permeability test will be described in detail below.
The following operation was performed in an environment of 5 to 15° C. • 1. A measuring apparatus, a lactase solution sample, and distilled water were cooled to the test environment temperature. • 2. The lactase solution sample was diluted with distilled water or concentrated by ultrafiltration to adjust the lactase activity to 16,000 to 17,500 U/g and mixed well. • 3. In the test, one in which a 25 nun stainless steel filter holder (manufactured by PALL Corporation, product number 1209 (effective membrane area: 3.7 cm^2)) is connected to a stainless steel holder with a 47 mm tank (Advantec Toyo Kaisha, Ltd., product name “KST-47”) was used as an apparatus. A sample permeating portion in the filter holder is configured to include an O-ring, a membrane, a support screen, and an underdrain disc from the measurement sample inlet side (in the test of the present invention, the filter of the stainless steel holder with the tank and the parts of the filter bolding portion (the support screen and the support thereof) were not attached). As the membrane, DURAPORE (product name) (pore diameter: 0.22 μm, φ25 mm, made of hydrophilic PVDF) manufactured by Merck Millipore was used, and as the support screen, Type 316 stainless steel attached to the filter holder was used. In addition, in order to adjust the permeation rate, four circular label stickers (manufactured by A-One Co., Ltd., product name A-one color label 07010) having a diameter of 0.9 cm were stuck symmetrically to an upper portion of the support screen (measurement sample inlet side) (effective membrane area: 1.26 cm^2), and a membrane filter (pore diameter: 0.22 μm) was set. The membrane was rinsed with a 50% glycerin aqueous solution and attached to the stainless steel filter holder. • 4. The lactase solution sample (sample) diluted in 2. was charged into the stainless steel holder with the tank. • 5. A pressure of 0.2 MPa was applied to the stainless steel holder with the tank using an air compressor (manufactured by Yaezaki Kuatsu Co., Ltd., product name “KAPSEL-CON YC-3R” or “PC4-15HLM”), and the enzyme solution was pumped. The permeate was received in a container such as a beaker, the amount of the permeate was recorded every 10 seconds, and (1) the permeation amount (permeate (kg/m^2)) and (2) the permeation rate (flux (kg/min×m^2)) per square meter of the membrane were determined by the following method. In addition, the slope a of an approximate curve y=ax+b obtained when (1) is plotted on the x axis and (2) is plotted on the y axis was determined.
Permeate (kg/m^2)=weight (g) of product that permeated at point n/(membrane radius (mm))×membrane radius (mm)×circumference ratio)(m^2)×1000 (1)
Flux (kg/min×m^2)=(permeate at point n−permeate at point (n−1))/(permeation time (min) at point n−permeation time (min) at point (n−1)) (2) • *n indicates a measurement point. In order to record the permeation amount for every 10 seconds, for example, when the point n is for the permeation amount or permeate at the time of permeation for 10 seconds, the point (n−1) is for the permeation amount of permeate at the time of permeation for 0 seconds.
as §1
Each lactase solution was obtained by adding the additive shown in the table in a predetermined amount to 60,000 U/g GODO-YNL2LS. […] The lactase activity of each lactase solution after storage at 50° C. for 3 days was measured.

T1 sequence (P00723 whole entry): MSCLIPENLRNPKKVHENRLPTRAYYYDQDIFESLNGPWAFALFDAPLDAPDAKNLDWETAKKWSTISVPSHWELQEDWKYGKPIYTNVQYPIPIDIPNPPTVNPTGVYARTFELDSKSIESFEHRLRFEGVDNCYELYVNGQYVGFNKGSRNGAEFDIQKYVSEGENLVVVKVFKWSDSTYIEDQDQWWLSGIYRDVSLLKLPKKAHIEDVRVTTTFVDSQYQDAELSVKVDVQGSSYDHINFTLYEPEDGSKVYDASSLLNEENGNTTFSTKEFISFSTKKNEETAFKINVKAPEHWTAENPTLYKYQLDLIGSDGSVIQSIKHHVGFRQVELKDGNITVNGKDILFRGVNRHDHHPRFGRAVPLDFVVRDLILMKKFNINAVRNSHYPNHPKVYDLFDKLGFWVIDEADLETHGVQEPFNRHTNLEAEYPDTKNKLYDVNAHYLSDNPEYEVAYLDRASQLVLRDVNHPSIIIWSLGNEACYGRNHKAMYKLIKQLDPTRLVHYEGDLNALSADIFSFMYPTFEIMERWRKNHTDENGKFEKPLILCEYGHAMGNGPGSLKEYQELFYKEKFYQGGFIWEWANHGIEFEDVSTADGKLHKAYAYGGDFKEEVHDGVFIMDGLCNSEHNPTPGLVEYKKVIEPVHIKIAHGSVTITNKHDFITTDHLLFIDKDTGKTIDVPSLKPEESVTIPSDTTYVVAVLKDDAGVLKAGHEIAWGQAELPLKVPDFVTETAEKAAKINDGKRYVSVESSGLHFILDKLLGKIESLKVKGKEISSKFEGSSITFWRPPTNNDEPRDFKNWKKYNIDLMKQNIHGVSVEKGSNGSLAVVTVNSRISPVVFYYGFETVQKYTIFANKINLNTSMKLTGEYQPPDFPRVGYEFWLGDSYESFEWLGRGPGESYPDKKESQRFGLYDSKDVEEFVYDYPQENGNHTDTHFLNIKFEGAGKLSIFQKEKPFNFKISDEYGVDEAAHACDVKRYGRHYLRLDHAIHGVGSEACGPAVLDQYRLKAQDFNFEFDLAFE

| SMILES | Residual Activity ([1]; additive 0.01 %) [%] | Slope (−a) Before Shaking ([2]; additive 0.01 % in GODO-YNL2LS) | Slope (−a) After Shaking ([2]; additive 0.01 %) | other results |
| --- | --- | --- | --- | --- |
| C[N+](C)(C)CC(=O)O [Betaine Hydrochloride] |  |  |  | Residual Activity ([1]; Table 2, addition amount 0.1): 66.5%; Slope Before Shaking ([2]; Table 2, addition amount 0.1, immediately after preparation): 0.0291 |
| N[C@@H](CS)C(=O)O [Cysteine] |  |  |  | Residual Activity ([1]; Table 2, addition amount 0.02): 1.1% |
| CCCCC/C=C\C/C=C\CCCCCCCC(=O)O [Linoleic Acid] | 61.1 | 0.0265 | 0.0253 | residual activity of lactase activity after storage (storage stability test) [1]: practical level |
| CCCCCCCCCC(=O)[O-].[Na+] [Na Decanoate] |  | 0.0228 |  |  |
| CCCCCCCCCCCC(=O)[O-].[Na+] [Na Laurate] |  | 0.0176 | 0.0590 |  |
| CCCCCCCCCCCCCC(=O)[O-].[Na+] [Na Myristate] | 70.7 | 0.0147 |  |  |
| CCCCCCCC/C=C\CCCCCCCC(=O)[O-].[Na+] [Na Oleate] | 71.4 |  |  | Residual Activity ([1]; additive 0.005 %): 64.3%; Slope (−a) Before Shaking ([2]; additive 0.005 % in GODO-YNL2LS): 0.0243; Slope (−a) After Shaking ([2]; additive 0.005 %): 0.0216; Slope (−a) Before Shaking ([2]; additive 0.1 % in GODO-YNL2LS): 0.0542; Slope (−a) After Shaking ([2]; additive 0.1 %): 0.0405 |
| CCCCCCCCCCCCCCCC(=O)[O-].[Na+] [Na Palmitate] | 61.5 | 0.0200 | deteriorated |  |
| CCCCCCCCCCCCCCCCCC(=O)[O-].[Na+] [Na Stearate] | 61.9 | 0.0273 | deteriorated |  |
| CCCCCCCC/C=C\CCCCCCCC(=O)O [Oleic Acid] | 72.0 | 0.0272 | 0.0407 | residual activity of lactase activity after storage (storage stability test) [1]: practical level |
| N[C@@H](CCC(=O)N[C@@H](CS)C(=O)NCC(=O)O)C(=O)O [Reduced Glutathione] |  |  |  | Residual Activity ([1]; Table 2, addition amount 0.02): 19.9% |
